Values quoted from earlier work as cited in patent publication US20020169561A1, “Modular computational models for predicting the pharmaceutical properties of chemical compunds” (priority 2001, published 2002).
“And” between values parts separate entries of the source, which are not always exact repeats. Identical values can stand only once. Like-named read-outs stand apart in the source and are kept apart here.

Key:
[1] = system: Caco-2 cell monolayer
[2] = in vivo drug absorption, compiled by search of the literature
[3] = molecular target: T1, renin (Homo sapiens, UniProt P00797); set-up: −ΔS: unit not given here; conditions: for −ΔH: enthalpy of binding to renin; for −ΔS: entropy of binding to renin; for −ΔG: free energy of binding to renin; for Kd: renin inhibitors
T1 sequence (P00797 67-406): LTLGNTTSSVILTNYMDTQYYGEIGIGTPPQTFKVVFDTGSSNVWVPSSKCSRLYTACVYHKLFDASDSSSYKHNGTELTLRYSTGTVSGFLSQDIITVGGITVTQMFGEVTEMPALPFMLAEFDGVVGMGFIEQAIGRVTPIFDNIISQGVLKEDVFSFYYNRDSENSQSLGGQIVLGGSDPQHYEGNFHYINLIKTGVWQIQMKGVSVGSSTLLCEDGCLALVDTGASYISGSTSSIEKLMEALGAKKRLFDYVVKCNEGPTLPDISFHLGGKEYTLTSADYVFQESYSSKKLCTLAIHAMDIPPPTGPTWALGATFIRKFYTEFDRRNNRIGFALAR

[4] = Caco-2 permeability coefficient, Table 3
[5] = observed, training set, Table 7

For `Nc1nc2c(ncn2COCCO)c(=O)[nH]1` [Acyclovir], the “Permeability × 10^6 (cm/sec)” value [1, 4] is given as 0.25 × 10^6 (cm/sec) and the “Obs. Pcaco-2x10^6” value [1, 5] is given as 0.25 x10^6.

In the case of `C=CCc1ccccc1OCC(O)CNC(C)C` (stereo not shown) [Alprenolol], the “Permeability × 10^6 (cm/sec)” value [1, 4] is given as 25.30 × 10^6 (cm/sec), the “Obs. Pcaco-2x10^6” value [1, 5] is given as 25.3 x10^6 and the “% Absorbed” value [2] is given as 93%.

For `Cc1c(N(C)C)c(=O)n(-c2ccccc2)n1C` [Aminopyrine], the “Permeability × 10^6 (cm/sec)” value [1, 4] is listed as 36.5 × 10^6 (cm/sec).

For `CCC12CCN(CC3(O)CC3)C(Cc3ccc(O)cc31)C2(C)C` (stereo not shown) [Bremazocine], the “Permeability × 10^6 (cm/sec)” value ([1]; Caco-2) is listed as 8.02 × 10^6 (cm/sec) and the “Obs. Pcaco-2x10^6” value [1, 5] is listed as 8.02 x10^6.

For `CN(C)CCCN1c2ccccc2Sc2ccc(Cl)cc21` [Chlorpromazine], the “Permeability × 10^6 (cm/sec)” value [1, 4] is given as 19.90 × 10^6 (cm/sec), the “Obs. Pcaco-2x10^6” value [1, 5] is given as 19.9 x10^6 and the “% Absorbed” value [2] is given as 90%.

For `Clc1cccc(Cl)c1N=C1NCCN1` [Clonidine], the “Permeability × 10^6 (cm/sec)” value [1, 4] is given as 21.80 × 10^6 (cm/sec), the “Obs. Pcaco-2x10^6” value [1, 5] is given as 21.8 x10^6 and the “% Absorbed” value [2] is given as 100%.

For `C[C@]12C[C@H](O)[C@H]3[C@@H](CCC4=CC(=O)CC[C@@]43C)[C@@H]1CC[C@@H]2C(=O)CO` [Corticosterone], the “Obs. Pcaco-2x10^6” value [1, 5] is given as 21.2 x10^6 and the “% Absorbed” value [2] is given as 100%.

In the case of `CNCCCN1c2ccccc2CCc2ccccc21` [Desipramine], the “Permeability × 10^6 (cm/sec)” value [1, 4] is given as 24.20 × 10^6 (cm/sec), the “Obs. Pcaco-2x10^6” value [1, 5] is given as 24.2 x10^6 and the “% Absorbed” value [2] is given as 95%.

For `C[C@@H]1C[C@H]2[C@@H]3CCC4=CC(=O)C=C[C@]4(C)[C@@]3(F)[C@@H](O)C[C@]2(C)[C@@]1(O)C(=O)CO` [Dexamethasone], the “% Absorbed” value [2] is given as 100%.

In the case of `CN1C(=O)CN=C(c2ccccc2)c2cc(Cl)ccc21` [Diazepam], the “% Absorbed” value [2] is listed as 100%.

For `NCCc1ccc(O)c(O)c1` [Dopamine], the “Permeability × 10^6 (cm/sec)” value [1, 4] is given as 9.33 × 10^6 (cm/sec) and the “Obs. Pcaco-2x10^6” value [1, 5] is given as 9.33 x10^6.

In the case of `Nc1nc(O)c2ncn(COC(CO)CO)c2n1` [Ganciclovir], the “% Absorbed” value [2] is listed as 3%.

In the case of `COc1ccc2c(c1)c(CC(=O)O)c(C)n2C(=O)c1ccc(Cl)cc1` [Indomethacin], the “Permeability × 10^6 (cm/sec)” value [1, 4] is listed as 20.40 × 10^6 (cm/sec) and the “Obs. Pcaco-2x10^6” value [1, 5] is listed as 20.4 x10^6.

In the case of `CC(CCc1ccccc1)NCC(O)c1ccc(O)c(C(N)=O)c1` (stereo not shown) [Labetalol], the “% Absorbed” value [2] is given as 90%.

In the case of `OC[C@@H](O)[C@@H](O)[C@H](O)[C@H](O)CO` [Mannitol], the “Permeability × 10^6 (cm/sec)” value [1, 4] is listed as 0.38 × 10^6 (cm/sec) and the “% Absorbed” value [2] is listed as 16%.

For `COCCc1ccc(OCC(O)CNC(C)C)cc1` (stereo not shown) [Metoprolol], the “Permeability × 10^6 (cm/sec)” value [1, 4] is given as 23.70 × 10^6 (cm/sec) and the “Obs. Pcaco-2x10^6” value [1, 5] is given as 23.7 x10^6.

For `CC(C)(C)NCC(O)COc1cccc2c1CC(O)C(O)C2` (stereo not shown) [Nadolol], the “Permeability × 10^6 (cm/sec)” value [1, 4] is listed as 3.88 × 10^6 (cm/sec) and the “Obs. Pcaco-2x10^6” value [1, 5] is listed as 3.88 x10^6.

In the case of `CN1CCCC1c1cccnc1` (stereo not shown) [Nicotine], the “Obs. Pcaco-2x10^6” value ([1]; Caco-2) is given as 19.4 x10^6, the “Permeability × 10^6 (cm/sec)” value ([1]; Caco-2) is given as 19.40 × 10^6 (cm/sec) and the “% Absorbed” value [2] is given as 100%.

In the case of `c1ccc(C2(N3CCCCC3)CCCCC2)cc1` [Phencyclidine], the “Obs. Pcaco-2x10^6” value ([1]; Caco-2) is listed as 24.7 x10^6 and the “Permeability × 10^6 (cm/sec)” value ([1]; Caco-2) is listed as 24.70 × 10^6 (cm/sec).

In the case of `O=C1NC(=O)C(c2ccccc2)(c2ccccc2)N1` [Phenytoin], the “Permeability × 10^6 (cm/sec)” value [1, 4] is given as 26.70 × 10^6 (cm/sec), the “Obs. Pcaco-2x10^6” value [1, 5] is given as 26.7 x10^6 and the “% Absorbed” value [2] is given as 90%.

For `CC(C)NCC(O)COc1cccc2[nH]ccc12` (stereo not shown) [Pindolol], the “Permeability × 10^6 (cm/sec)” value [1, 4] is given as 16.70 × 10^6 (cm/sec), the “Obs. Pcaco-2x10^6” value [1, 5] is given as 16.7 x10^6 and the “% Absorbed” value [2] is given as 95%.

In the case of `CC(=O)[C@H]1CC[C@H]2[C@@H]3CCC4=CC(=O)CC[C@]4(C)[C@H]3CC[C@]12C` [Progesterone], the “Permeability × 10^6 (cm/sec)” value [1, 4] is listed as 23.70 × 10^6 (cm/sec) and the “Obs. Pcaco-2x10^6” value [1, 5] is listed as 23.7 x10^6.

For `CC(C)NCC(O)COc1cccc2ccccc12` (stereo not shown) [Propranolol], the “Permeability × 10^6 (cm/sec)” value [1, 4] is given as 21.80 × 10^6 (cm/sec).

In the case of `O=C(O)c1ccccc1O` [Salicylic acid], the “Permeability × 10^6 (cm/sec)” value [1, 4] is listed as 22.00 × 10^6 (cm/sec) and the “Obs. Pcaco-2x10^6” value [1, 5] is listed as 22 x10^6.

For `O=C(O)c1cc(/N=N/c2ccc(S(=O)(=O)Nc3ccccn3)cc2)ccc1O` [Sulfasalazine], the “Permeability × 10^6 (cm/sec)” value [1, 4] is given as 0.30 × 10^6 (cm/sec) and the “Obs. Pcaco-2x10^6” value [1, 5] is given as 0.3 x10^6.

For `CC(C)(C)NCC(O)c1cc(O)cc(O)c1` (stereo not shown) [Terbutaline], the “Permeability × 10^6 (cm/sec)” value [1, 4] is listed as 0.47 × 10^6 (cm/sec), the “Obs. Pcaco-2x10^6” value [1, 5] is listed as 0.47 x10^6 and the “% Absorbed” value [2] is listed as 73%.

For `C[C@]12CC[C@H]3[C@@H](CCC4=CC(=O)CC[C@@]43C)[C@@H]1CC[C@@H]2O` [Testosterone], the “Obs. Pcaco-2x10^6” value ([1]; Caco-2) is given as 24.9 x10^6 and the “% Absorbed” value [2] is given as 100%.

In the case of `CC(C)(C)NC[C@H](O)COc1nsnc1N1CCOCC1` [Timolol], the “Permeability × 10^6 (cm/sec)” value [1, 4] is given as 12.80 × 10^6 (cm/sec), the “Obs. Pcaco-2x10^6” value [1, 5] is given as 12.8 x10^6 and the “% Absorbed” value [2] is given as 72%.

In the case of `NC(N)=O` [Urea], the “Permeability × 10^6 (cm/sec)” value [1, 4] is given as 4.56 × 10^6 (cm/sec).

For `CC(=O)CC(c1ccccc1)c1c(O)c2ccccc2oc1=O` (stereo not shown) [Warfarin], the “Permeability × 10^6 (cm/sec)” value [1, 4] is given as 21.10 × 10^6 (cm/sec).

In the case of `Cc1cn([C@H]2C[C@H](N=[N+]=[N-])[C@@H](CO)O2)c(=O)[nH]c1=O` [Zidovudine], the “Permeability × 10^6 (cm/sec)” value [1, 4] is given as 6.93 × 10^6 (cm/sec) and the “% Absorbed” value [2] is given as 100%.

For “Ac-D-pro-phe-his-leu-Y[CH(OH)CH2]val-ile-NH2 [Compound U77647E]”, the “−ΔH” value [3] is listed as 20.33 kcal/mol, the “−ΔS” value [3] is listed as 105.5 and the “−ΔG” value [3] is listed as 12.4 kcal/mol. The Kd [3] was 1.3 nM.

For “Ac-his-pro-phe-his-sta-ile-NH2 [Compound U72409E]”, the “−ΔH” value [3] is listed as 22.63 kcal/mol, the “−ΔS” value [3] is listed as 108.0 and the “−ΔG” value [3] is listed as 10.8 kcal/mol. For the same compound, the Kd [3] was 23 nM.

For “Ac-phe-his-leu-y[CH(OH)CH2]val-ile-NH2 [Compound U80631E]”, the “−ΔH” value [3] is given as 14.28 kcal/mol, the “−ΔS” value [3] is given as 75.7 and the “−ΔG” value [3] is given as 9.2 kcal/mol. For the same compound, the Kd [3] was 370 nM.

For “Ac-phe-his-phe-Y[CH2NH]phe-NH2 [Compound U73777E]”, the “−ΔH” value [3] is listed as 14.20 kcal/mol, the “−ΔS” value [3] is listed as 76.3 and the “−ΔG” value [3] is listed as 9.4 kcal/mol. For the same compound, the Kd [3] was 220 nM.

In the case of “Ac-phe-his-sta-ile-NH2 [Compound U72407E]”, the “−ΔH” value [3] is listed as 26.10 kcal/mol, the “−ΔS” value [3] is listed as 114.8 and the “−ΔG” value [3] is listed as 9.5 kcal/mol. For the same compound, the Kd [3] was 203 nM and 204 nM.

In the case of “Ac-pro-phe-his-leu-Y[CH(OH)CH2]val-ile-NH2 [Compound U77646E]”, the “−ΔH” value [3] is listed as 28.75 kcal/mol, the “−ΔS” value [3] is listed as 131.1 and the “−ΔG” value [3] is listed as 11.5 kcal/mol. The Kd [3] was 5.4 nM.

In the case of “Ac-pro-phe-his-phe-Y[CH2NH]phe-Mba [Compound U77451E]”, the “−ΔH” value [3] is given as 26.70 kcal/mol, the “−ΔS” value [3] is given as 125.3 and the “−ΔG” value [3] is given as 12.2 kcal/mol. For the same compound, the Kd [3] was 2.5 nM.

For “Ac-pro-phe-his-phe-Y[CH2NH]phe-NH2 [Compound U71909E]”, the “−ΔH” value [3] is given as 13.70 kcal/mol, the “−ΔS” value [3] is given as 78.4 and the “−ΔG” value [3] is given as 10.6 kcal/mol. The Kd [3] was 29 nM.

In the case of “Ac-pro-phe-his-sta-ile-NH2 [Compound U72408E]”, the “−ΔH” value [3] is given as 14.69 kcal/mol, the “−ΔS” value [3] is given as 79.6 and the “−ΔG” value [3] is given as 9.9 kcal/mol. For the same compound, the Kd [3] was 98 nM.

In the case of “Iva-his-pro-phe-his-sta-ile-phe-NH2 [Compound U77455E]”, the “−ΔH” value [3] is given as 21.36 kcal/mol, the “−ΔS” value [3] is given as 108.9 and the “−ΔG” value [3] is given as 12.4 kcal/mol. The Kd [3] was 1.7 nM.
